# According to patent US8889651B2, “Trehalose derivatives, preparation method and uses thereof” (Joyochem Co., Ltd., priority 2010, dated 2014):
# Read-outs that look alike come from different tables or passages of the source.
# How the values were obtained:
# [1] = system: colon cancer 26-L5 cell invasion; experiment: recombinant basement membrane invasion experiment (Transwell/Matrigel); type: cell-based; settings: for IC50 (μg/mL) / IC50: inhibition of colon cancer 26-L5 cell invasion
# Description: Invasion and metastasis are basic characteristics of malignant tumors. During the tumor metastasis process, the tumor cell invasion into a basement membrane is an important link. A conventional recombinant basement membrane invasion experiment is adopted, a natural product Brartemicin is taken as positive control, and the inhibition action of trehalose derivatives against colon cancer 26-L5 cell invasion activity is determined.
# Polycarbonate membrane 8 μm (Nucleopore, Pleasanton, Calif., USA); Transwell cell culture chamber (Costar 3422, Cambridge, Mass., USA); fibronectin (FN; Collaborative Research Inc., Bedford, Mass., USA); Matrigel (Collaborative Research Inc., Bedford, Mass., USA); RPMI1640 culture medium containing 1% of fetal calf serum (FCS) (Collaborative Research Inc., Bedford, Mass., USA); and hematoxylin-eosin (HE) staining kit (Collaborative Research Inc., Bedford, Mass, USA).
# 20 μg of fibronectin is smeared on the lower layer of a Transwell cell culture chamber, and 5 μg of Matrigel is smeared on the upper layer. Colon cancer 26-L5 cells in an exponential growth phase are suspended in an RPMI1640 culture medium containing 1% of fetal calf serum (FCS), which contains different concentrations of the trehalose derivatives or different concentrations of Brartemicin. […] The filter ester membranes contain the colored colon cancer 26-L5 cells after invasion. The ester membranes are placed on glass slides and are subjected to permeabilization by xylene, neutral resin is used for sealing, and the invasion cells are counted under a 400× microscope. The number of the penetrating cells of each membrane is counted from five different visual fields, namely upper, lower, left, right and middle visual fields, the average value is calculated, and three filter membranes are arranged in parallel in each group.
# The natural product Brartemicin is taken as the positive control, the inhibition action of the trehalose derivatives against the colon cancer 26-L5 cell invasion activity is determined, and the activity experiment results are as shown in the following Table 1.
# [2] = system: colon cancer 26-L5 cell invasion; settings: background statement; read-out: anti-colon cancer 26-L5 cell invasion activity IC50; cited from earlier work
# normal cells = settings: background statement; cited from earlier work
Compound,IC50 (μg/mL) ([1]; incubation 6-8 hours),anti-colon cancer 26-L5 cell invasion activity (in words) [1],also measured
COc1cc(C(=O)OCC2OC(OC3OC(COC(=O)c4ccc(F)c(OC)c4)C(O)C(O)C3O)C(O)C(O)C2O)ccc1F (stereo not drawn) [Compound 3h],NA (NA: no activity when IC50 is 10 μg/mL),–,–
Cc1cc(O)cc(O)c1C(=O)OC[C@H]1O[C@H](O[C@H]2O[C@H](COC(=O)c3c(C)cc(O)cc3O)[C@@H](O)[C@H](O)[C@H]2O)[C@H](O)[C@@H](O)[C@@H]1O [Brartemicin],–,–,"IC50 ([1]; incubation 6-8 hours, read-out: IC50): 0.25 µg/mL; IC50 [2]: 390 nM; toxicity against normal cells (normal cells): no toxicity against normal cells"
COc1cc(C(=O)OC[C@H]2O[C@H](O[C@H]3O[C@H](COC(=O)c4cc(OC)c(OC)c(OC)c4)[C@@H](O)[C@H](O)[C@H]3O)[C@H](O)[C@@H](O)[C@@H]2O)cc(OC)c1OC [Compound 3i],NA (NA: no activity when IC50 is 10 μg/mL),–,–
COc1cccc(C(=O)OC[C@H]2O[C@H](O[C@H]3O[C@H](COC(=O)c4cccc(OC)c4OC)[C@@H](O)[C@H](O)[C@H]3O)[C@H](O)[C@@H](O)[C@@H]2O)c1OC [Compound 3e],–,strong anti-colon cancer 26-L5 cell invasion activity,"activity compared with the natural product Brartemicin [1]: stronger activity than the natural product Brartemicin; IC50 ([1]; incubation 6-8 hours): 0.10 µg/mL; IC50 ([1]; same value given in μM, read-out: IC50): 0.15 µM"
"COc1ccc(C(=O)OC[C@H]2O[C@H](O[C@H]3O[C@H](COC(=O)c4ccc(OC)cc4)[C@@H](O)[C@H](O)[C@H]3O)[C@H](O)[C@@H](O)[C@@H]2O)cc1 [Compound 3c, 6,6′-bis(4-methoxybenzoyl)-α,α-D-trehalose]",NA (NA: no activity when IC50 is 10 μg/mL),–,–
O=C(OCC1OC(OC2OC(COC(=O)c3ccc(O)cc3)C(O)C(O)C2O)C(O)C(O)C1O)c1ccc(O)cc1 (stereo not drawn) [Compound 3d],–,strong anti-colon cancer 26-L5 cell invasion activity,–
"Cc1ccccc1C(=O)OC[C@H]1O[C@H](O[C@H]2O[C@H](COC(=O)c3ccccc3C)[C@@H](O)[C@H](O)[C@H]2O)[C@H](O)[C@@H](O)[C@@H]1O [Compound 3b, 6,6″-bis(2-methylbenzoyl)-α,α-D-trehalose]",NA (NA: no activity when IC50 is 10 μg/mL),–,–
"COc1ccccc1C(=O)OCC1OC(OC2OC(COC(=O)c3ccccc3OC)C(O)C(O)C2O)C(O)C(O)C1O [Compound 3a, 6,6′-bis(2-methoxybenzoyl)-α,α-D-trehalose]",–,strong anti-colon cancer 26-L5 cell invasion activity,–
Cc1cccc(N)c1C(=O)OC[C@H]1O[C@H](O[C@H]2O[C@H](COC(=O)c3c(C)cccc3N)[C@@H](O)[C@H](O)[C@H]2O)[C@H](O)[C@@H](O)[C@@H]1O [Compound 3g],–,strong anti-colon cancer 26-L5 cell invasion activity,–
O=C(OCC1OC(OC2OC(COC(=O)c3c(F)cccc3F)C(O)C(O)C2O)C(O)C(O)C1O)c1c(F)cccc1F (stereo not drawn) [Compound 3f],–,strong anti-colon cancer 26-L5 cell invasion activity,–
